Laboratory results as given in PubChem BioAssay AID330 (DTP/NCI, 2004).
Several values for one entry are separate records, joined by “and”; a condition that tells them apart may be missing. Equal values may be shown once. Toxic doses and inconclusive results are not listed. Rule for the calls: active = survival T/C of 150% or more; inactive = T/C below 125% in these data.

Tested on: P388 leukemia ip, CD2F1 mice, survival T/C
Experiment: NCI In Vivo Anticancer Drug Screen. Data for tumor model P388 Leukemia (intraperitoneal) in CD2F1 (CDF1) mice
Conditions: endpoint: median survival time, higher = longer survival
Summary of the method: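 Mice carrying the transplanted tumor received test compound or vehicle. Survival was recorded in each group, and the value is the treated-group measurement divided by that of the vehicle-treated control group.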

[1] = dose: 100.0 mg/kg/injection, schedule: Q01DX001 (ip), vehicle: Klucel (hydroxypropylcellulose) (HPC)
[2] = dose: 50.0 mg/kg/injection, schedule: Q01DX009 (ip), vehicle: Klucel (hydroxypropylcellulose) (HPC)
[3] = dose: 100.0 mg/kg/injection, schedule: Q01DX009 (ip), vehicle: Klucel (hydroxypropylcellulose) (HPC)
[4] = dose: 200.0 mg/kg/injection, schedule: Q01DX009 (ip), vehicle: Klucel (hydroxypropylcellulose) (HPC)

Measured: T/C

CC(C)CC1C(=O)OC(C(C)C)C(=O)N(C)C(CC(C)C)C(=O)OC(C(C)C)C(=O)N(C)C(CC(C)C)C(=O)OC(C(C)C)C(=O)N(C)C(CC(C)C)C(=O)OC(C(C)C)C(=O)N1C (stereo not given)
inactive: dose: 1.0 mg/kg/injection, schedule: Q01DX009 (ip), vehicle: saline with Tween-80 99 % of control | dose: 2.0 mg/kg/injection, schedule: Q01DX009 (ip), vehicle: saline with Tween-80 90 % of control | dose: 4.0 mg/kg/injection, schedule: Q01DX009 (ip), vehicle: saline with Tween-80 101 % of control | dose: 8.0 mg/kg/injection, schedule: Q01DX009 (ip), vehicle: saline with Tween-80 101 % of control | dose: 16.0 mg/kg/injection, schedule: Q01DX009 (ip), vehicle: saline with Tween-80 96 % of control

Nn1cnnc1SCc1ccccc1
inactive: dose: 100.0 mg/kg/injection, schedule: Q01DX001 (ip), vehicle: other 100 % of control | dose: 200.0 mg/kg/injection, schedule: Q01DX001 (ip), vehicle: other 100 % of control | dose: 400.0 mg/kg/injection, schedule: Q01DX001 (ip), vehicle: other 100 % of control

CC/C=C\C/C=C\C/C=C\CCCCCCCC(=O)O
inactive: dose: 40.0 mg/kg/injection, schedule: Q01DX009 (ip), vehicle: Klucel (hydroxypropylcellulose) (HPC) 92 % of control | dose: 80.0 mg/kg/injection, schedule: Q01DX009 (ip), vehicle: Klucel (hydroxypropylcellulose) (HPC) 100 % of control | dose: 160.0 mg/kg/injection, schedule: Q01DX009 (ip), vehicle: Klucel (hydroxypropylcellulose) (HPC) 98 % of control | dose: 320.0 mg/kg/injection, schedule: Q01DX009 (ip), vehicle: Klucel (hydroxypropylcellulose) (HPC) 95 % of control

COc1ccc(C2c3cc(OC(C)=O)c(OC)cc3Oc3cc(OC)c(OC(C)=O)cc32)cc1
inactive: dose: 50.0 mg/kg/injection, schedule: Q01DX005 (ip), vehicle: Klucel (hydroxypropylcellulose) (HPC) 96 % of control | dose: 100.0 mg/kg/injection, schedule: Q01DX005 (ip), vehicle: Klucel (hydroxypropylcellulose) (HPC) 93 % of control | dose: 200.0 mg/kg/injection, schedule: Q01DX005 (ip), vehicle: Klucel (hydroxypropylcellulose) (HPC) 87 % of control

CC(C)CC(=O)Nc1ccc(S(=O)(=O)Cl)cc1
inactive: dose: 100.0 mg/kg/injection, schedule: Q01DX009 (ip), vehicle: saline 100 % of control | dose: 200.0 mg/kg/injection, schedule: Q01DX009 (ip), vehicle: saline 90 % of control | dose: 400.0 mg/kg/injection, schedule: Q01DX009 (ip), vehicle: saline 90 % of control

Cc1cccc(-c2nc3c(C)nc(-c4ccccc4)nc3n2Nc2ccccc2)c1
inactive: [1] 87 % of control

CC(=O)n1c(Cl)c(/C=N/NS(=O)(=O)c2ccc(C)cc2)c2ccccc21
inactive: dose: 25.0 mg/kg/injection, schedule: Q01DX001 (ip), vehicle: saline with Tween-80 100 % of control | dose: 50.0 mg/kg/injection, schedule: Q01DX001 (ip), vehicle: saline with Tween-80 86 % of control and 88 % of control | dose: 100.0 mg/kg/injection, schedule: Q01DX001 (ip), vehicle: saline with Tween-80 91 % of control

O=S(=O)(O)O.[Ga]
inactive: dose: 33.0 mg/kg/injection, schedule: Q04DX003 (ip), vehicle: saline sonified 95 % of control | dose: 50.0 mg/kg/injection, schedule: Q01DX009 (ip), vehicle: saline sonified 100 % of control | dose: 50.0 mg/kg/injection, schedule: Q04DX003 (ip), vehicle: saline sonified 110 % of control

c1ccc2cc(OCC3CO3)c(OCC3CO3)cc2c1 (stereo not given)
active: dose: 120.0 mg/kg/injection, schedule: Q01DX005 (ip), vehicle: saline with Tween-80 151 % of control
inactive: dose: 1.88 mg/kg/injection, schedule: Q01DX005 (ip), vehicle: saline with Tween-80 100 % of control | dose: 3.75 mg/kg/injection, schedule: Q01DX005 (ip), vehicle: saline with Tween-80 107 % of control | dose: 7.5 mg/kg/injection, schedule: Q01DX005 (ip), vehicle: saline with Tween-80 116 % of control | dose: 15.0 mg/kg/injection, schedule: Q01DX005 (ip), vehicle: saline with Tween-80 122 % of control

CN(C(=S)SSC(=S)N(C)c1ccccc1)c1ccccc1
inactive: dose: 25.0 mg/kg/injection, schedule: Q01DX009 (ip), vehicle: Klucel (hydroxypropylcellulose) (HPC) 91 % of control | [2] 93 % of control | [3] 97 % of control | [4] 101 % of control

O=C1c2ccccc2Cc2c(NCc3ccccc3)ncnc2N1Cc1ccccc1
inactive: dose: 50.0 mg/kg/injection, schedule: Q01DX009 (ip), vehicle: saline with Tween-80 104 % of control | dose: 100.0 mg/kg/injection, schedule: Q01DX009 (ip), vehicle: saline with Tween-80 101 % of control | dose: 200.0 mg/kg/injection, schedule: Q01DX009 (ip), vehicle: saline with Tween-80 90 % of control

CN=C(NC)c1ccc(NC(=O)/C=C\c2ccc(C(=O)Nc3ccc(C(=NC)NC)cc3)cc2)cc1
active: dose: 3.13 mg/kg/injection, schedule: Q01DX009 (ip), vehicle: saline with Tween-80 172 % of control | dose: 4.4 mg/kg/injection, schedule: Q04DX003 (ip), vehicle: saline with Tween-80 150 % of control | dose: 10.0 mg/kg/injection, schedule: Q04DX003 (ip), vehicle: saline with Tween-80 155 % of control | dose: 15.0 mg/kg/injection, schedule: Q04DX003 (ip), vehicle: saline with Tween-80 155 % of control
inactive: dose: 6.25 mg/kg/injection, schedule: Q01DX009 (ip), vehicle: saline with Tween-80 113 % of control | dose: 12.5 mg/kg/injection, schedule: Q01DX009 (ip), vehicle: saline with Tween-80 95 % of control

CC(=O)O.CC(=O)O.CC(=O)O.CC(=O)O.[Rh].[Rh]
inactive: dose: 1.56 mg/kg/injection, schedule: Q01DX009 (ip), vehicle: Klucel (hydroxypropylcellulose) (HPC) 111 % of control | dose: 3.13 mg/kg/injection, schedule: Q01DX009 (ip), vehicle: Klucel (hydroxypropylcellulose) (HPC) 117 % of control | dose: 6.25 mg/kg/injection, schedule: Q01DX009 (ip), vehicle: Klucel (hydroxypropylcellulose) (HPC) 99 % of control | dose: 6.25 mg/kg/injection, schedule: Q04DX003 (ip), vehicle: saline 100 % of control | dose: 12.5 mg/kg/injection, schedule: Q01DX009 (ip), vehicle: Klucel (hydroxypropylcellulose) (HPC) 115 % of control | dose: 12.5 mg/kg/injection, schedule: Q04DX003 (ip), vehicle: saline 100 % of control | dose: 25.0 mg/kg/injection, schedule: Q04DX003 (ip), vehicle: saline 122 % of control

Cc1nc(N)nc(N)c1CCCc1ccccc1
inactive: dose: 3.12 mg/kg/injection, schedule: Q01DX001 (ip), vehicle: Klucel (hydroxypropylcellulose) (HPC) 107 % of control | dose: 6.25 mg/kg/injection, schedule: Q01DX001 (ip), vehicle: Klucel (hydroxypropylcellulose) (HPC) 101 % of control | dose: 12.5 mg/kg/injection, schedule: Q01DX001 (ip), vehicle: Klucel (hydroxypropylcellulose) (HPC) 105 % of control | dose: 12.5 mg/kg/injection, schedule: Q01DX001 (ip), vehicle: saline 100 % of control

CCNC(=O)OCc1c(Cl)nc2sccn12
inactive: [1] 106 % of control | dose: 200.0 mg/kg/injection, schedule: Q01DX001 (ip), vehicle: Klucel (hydroxypropylcellulose) (HPC) 107 % of control | dose: 400.0 mg/kg/injection, schedule: Q01DX001 (ip), vehicle: Klucel (hydroxypropylcellulose) (HPC) 100 % of control

CC(C)OC1=C2CCCCC2=[N+]2CCc3ccccc3C2C1 (stereo not given)
inactive: dose: 6.25 mg/kg/injection, schedule: Q04DX003 (ip), vehicle: saline with Tween-80 107 % of control | dose: 12.5 mg/kg/injection, schedule: Q04DX003 (ip), vehicle: saline with Tween-80 107 % of control | dose: 25.0 mg/kg/injection, schedule: Q04DX003 (ip), vehicle: saline with Tween-80 99 % of control

Cc1ccc2c(c1)sc1nnc(Cl)n12
inactive: [2] 100 % of control | [3] 94 % of control | [4] 88 % of control

CC1CCC(C)N1CCCCN1C(C)CCC1C (stereo not given)
inactive: dose: 3.13 mg/kg/injection, schedule: Q01DX009 (ip), vehicle: saline 104 % of control and 97 % of control | dose: 6.25 mg/kg/injection, schedule: Q01DX009 (ip), vehicle: saline 100 % of control and 104 % of control | dose: 12.5 mg/kg/injection, schedule: Q01DX009 (ip), vehicle: saline 100 % of control and 106 % of control | dose: 25.0 mg/kg/injection, schedule: Q01DX009 (ip), vehicle: saline 96 % of control

CCn1cc(C(=O)O)c(=O)c2cc3c(cc21)OCO3
inactive: dose: 60.0 mg/kg/injection, schedule: Q01DX005 (ip), vehicle: Klucel (hydroxypropylcellulose) (HPC) 100 % of control | dose: 120.0 mg/kg/injection, schedule: Q01DX005 (ip), vehicle: Klucel (hydroxypropylcellulose) (HPC) 103 % of control | dose: 240.0 mg/kg/injection, schedule: Q01DX005 (ip), vehicle: Klucel (hydroxypropylcellulose) (HPC) 100 % of control
